The text below walks through data of publication PMC12136037, “Type II kinase inhibitors that target Parkinson’s disease–associated LRRK2” (Science Advances, 2025).

Holding throughout (assay): DSF 100 kinase selectivity screen;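 also: compound tested at 20 µM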
Assay type in all cases: binding

For experiment [1], the target named is T1, ~100 representative kinases (Homo sapiens, UniProt O94768).
T1 construct: Recombinant protein kinase domains with a concentration of 2 μM
T1 sequence (O94768 1-372): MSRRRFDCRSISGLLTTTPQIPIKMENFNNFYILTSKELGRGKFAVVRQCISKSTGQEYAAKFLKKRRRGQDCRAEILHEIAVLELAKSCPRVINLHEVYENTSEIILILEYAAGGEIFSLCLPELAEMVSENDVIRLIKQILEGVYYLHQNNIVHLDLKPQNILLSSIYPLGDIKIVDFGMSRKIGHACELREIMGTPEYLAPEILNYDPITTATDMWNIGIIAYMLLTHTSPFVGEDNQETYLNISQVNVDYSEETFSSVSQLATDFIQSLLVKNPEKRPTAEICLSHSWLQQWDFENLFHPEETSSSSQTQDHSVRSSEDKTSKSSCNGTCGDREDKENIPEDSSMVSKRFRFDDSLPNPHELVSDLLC
To be noted: Protein STK17B; DSF; average of three replicates. An outline of the steps:
(§1)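 Each kinase domain, at 2 μM, is mixed with 20 μM test compound and SYPRO Orange in Hepes (20 mM, pH 7.5) with 500 mM NaCl. Temperature is then raised at 3°C/min and fluorescence-monitored unfolding yields the melting temperature change, ΔTm in degrees Celsius.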

Experiment [2] has as its target T2, ~100 representative kinases (Homo sapiens, UniProt Q99683).
T2 construct: Recombinant protein kinase domains with a concentration of 2 μM
T2 sequence (Q99683 1-1374): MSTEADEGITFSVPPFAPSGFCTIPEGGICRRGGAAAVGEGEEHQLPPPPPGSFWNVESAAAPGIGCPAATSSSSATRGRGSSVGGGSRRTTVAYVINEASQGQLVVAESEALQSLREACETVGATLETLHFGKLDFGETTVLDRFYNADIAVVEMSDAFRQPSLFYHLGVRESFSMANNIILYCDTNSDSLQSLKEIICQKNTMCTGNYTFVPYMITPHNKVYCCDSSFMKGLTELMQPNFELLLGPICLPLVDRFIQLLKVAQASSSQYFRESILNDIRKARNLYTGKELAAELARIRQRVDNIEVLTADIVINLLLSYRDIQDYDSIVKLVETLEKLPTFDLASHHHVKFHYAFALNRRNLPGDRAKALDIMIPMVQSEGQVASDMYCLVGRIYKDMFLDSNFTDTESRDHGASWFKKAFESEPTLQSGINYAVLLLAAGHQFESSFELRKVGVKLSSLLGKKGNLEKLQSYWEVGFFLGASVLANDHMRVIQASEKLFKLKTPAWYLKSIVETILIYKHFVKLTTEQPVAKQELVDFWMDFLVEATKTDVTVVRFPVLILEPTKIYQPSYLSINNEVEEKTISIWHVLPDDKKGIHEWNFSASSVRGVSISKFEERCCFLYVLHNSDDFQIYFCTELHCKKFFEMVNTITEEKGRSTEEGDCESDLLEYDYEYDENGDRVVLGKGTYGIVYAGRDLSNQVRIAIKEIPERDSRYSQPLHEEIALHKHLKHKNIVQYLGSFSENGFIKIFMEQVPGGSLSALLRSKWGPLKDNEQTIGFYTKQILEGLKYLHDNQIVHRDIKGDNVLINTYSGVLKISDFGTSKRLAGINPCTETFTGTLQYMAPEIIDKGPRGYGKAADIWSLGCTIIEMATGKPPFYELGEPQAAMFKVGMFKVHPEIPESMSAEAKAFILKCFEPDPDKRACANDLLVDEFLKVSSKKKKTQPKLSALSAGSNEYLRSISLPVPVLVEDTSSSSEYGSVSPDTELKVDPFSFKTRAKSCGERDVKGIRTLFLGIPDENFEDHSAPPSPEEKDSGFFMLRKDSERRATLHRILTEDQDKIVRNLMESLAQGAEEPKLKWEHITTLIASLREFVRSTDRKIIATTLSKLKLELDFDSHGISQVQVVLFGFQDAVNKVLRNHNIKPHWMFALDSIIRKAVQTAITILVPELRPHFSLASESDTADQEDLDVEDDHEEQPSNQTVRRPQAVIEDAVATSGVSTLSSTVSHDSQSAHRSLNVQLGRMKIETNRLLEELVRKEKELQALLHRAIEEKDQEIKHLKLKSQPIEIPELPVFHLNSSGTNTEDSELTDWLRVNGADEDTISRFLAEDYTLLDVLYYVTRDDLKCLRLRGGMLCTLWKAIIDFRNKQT
To be noted: protein MAP3K5; average of three replicates. An outline of the steps:
as §1

Experiment [3] addresses T3, ~100 representative kinases (Homo sapiens, UniProt Q8TD08).
T3 construct: Recombinant protein kinase domains with a concentration of 2 μM
T3 sequence (Q8TD08 1-544): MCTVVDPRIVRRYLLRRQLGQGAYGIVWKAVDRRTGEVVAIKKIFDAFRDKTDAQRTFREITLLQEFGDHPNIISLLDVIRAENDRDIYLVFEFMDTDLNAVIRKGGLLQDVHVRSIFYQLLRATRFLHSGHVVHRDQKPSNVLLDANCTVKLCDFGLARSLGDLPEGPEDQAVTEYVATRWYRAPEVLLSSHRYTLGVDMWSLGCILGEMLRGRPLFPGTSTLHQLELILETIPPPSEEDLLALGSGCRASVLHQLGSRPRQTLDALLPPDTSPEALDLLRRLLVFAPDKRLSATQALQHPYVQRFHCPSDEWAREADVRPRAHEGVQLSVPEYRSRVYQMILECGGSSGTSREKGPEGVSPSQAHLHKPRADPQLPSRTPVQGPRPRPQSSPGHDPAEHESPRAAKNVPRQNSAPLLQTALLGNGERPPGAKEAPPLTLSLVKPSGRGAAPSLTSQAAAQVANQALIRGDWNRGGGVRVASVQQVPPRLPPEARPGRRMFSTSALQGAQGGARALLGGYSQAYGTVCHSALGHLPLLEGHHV
The settings on record: protein MAPK15; average of three replicates. An outline of the steps:
as §1

In experiment [4] the target is T4, ~100 representative kinases (Homo sapiens, UniProt O14965).
T4 construct: Recombinant protein kinase domains with a concentration of 2 μM
T4 sequence (O14965 1-403): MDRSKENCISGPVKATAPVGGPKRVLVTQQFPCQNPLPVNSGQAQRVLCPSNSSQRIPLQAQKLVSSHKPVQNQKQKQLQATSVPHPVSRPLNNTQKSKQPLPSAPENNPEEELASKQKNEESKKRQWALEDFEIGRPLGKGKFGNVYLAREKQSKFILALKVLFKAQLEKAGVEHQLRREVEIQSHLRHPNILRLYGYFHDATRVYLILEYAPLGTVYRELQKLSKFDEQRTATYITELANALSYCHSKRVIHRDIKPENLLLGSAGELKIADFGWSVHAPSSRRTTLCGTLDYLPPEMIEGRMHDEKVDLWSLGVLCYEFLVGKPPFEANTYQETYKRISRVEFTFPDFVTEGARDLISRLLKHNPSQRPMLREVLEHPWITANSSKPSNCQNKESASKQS
The settings on record: Protein STK6; DSF; average of three replicates. An outline of the steps:
as §1

As to `O=C(Nc1cccc(-c2c[nH]c3ncnc(N4CCOCC4)c23)c1)C1(C(=O)Nc2ccc(F)cc2F)CC1` [Compound 23], the dTm in experiment [1] is listed as 3.82 K; in experiment [2], 2.39 K; in experiment [3], 6.01 K; in experiment [4], 6.33 K.

Turning to `Cc1cc(F)ccc1NC(=O)C1(C(=O)Nc2cccc(-c3c[nH]c4ncnc(N5CCOCC5)c34)c2)CC1` [Compound 24], the dTm is 2.37 K in experiment [1], 1.15 K in experiment [2], 4.07 K in experiment [3] and 6.56 K in experiment [4].

`O=C(Nc1cccc(-c2c[nH]c3ncnc(N4CCOCC4)c23)c1)C1(C(=O)Nc2cc(Br)c(F)cc2F)CC1` [Compound 25]: the dTm in experiment [1] is listed as 0.00 K; in experiment [2] it was 2.91 K; in experiment [3], 3.06 K; in experiment [4], 6.39 K.

In the case of `O=C(Nc1cccc(-c2c[nH]c3ncnc(N4CCOCC4)c23)c1)C1(C(=O)Nc2ccc(F)c(Br)c2F)CC1` [Compound 26], the dTm turned out to be 0.00 K in experiment [1], 3.03 K in experiment [2], 5.05 K in experiment [3] and 3.83 K in experiment [4].

For `O=C(Nc1cc(F)cc(Br)c1)C1(C(=O)Nc2cccc(-c3c[nH]c4ncnc(N5CCOCC5)c34)c2)CC1` [Compound 27], the dTm was 0.00 K in experiment [1], 3.40 K in experiment [2], 4.52 K in experiment [3] and 4.77 K in experiment [4].

`CC(C)(C)c1cc(NC(=O)Nc2cccc(-c3c[nH]c4ncnc(N5CCOCC5)c34)c2)n(-c2ccc3ncccc3c2)n1` [Compound 28]: the dTm in experiment [1] was determined as 9.72 K; in experiment [2], 3.36 K; in experiment [3] it was 14.38 K; in experiment [4], 4.51 K.

Regarding `Cc1ccc(-n2nc(C(C)(C)C)cc2NC(=O)Nc2cccc(-c3c[nH]c4ncnc(N5CCOCC5)c34)c2)cc1` [Compound 29], the dTm in experiment [1] is 6.55 K; in experiment [2], 4.49 K; in experiment [3], 16.65 K; in experiment [4], 4.13 K.

On to `Cc1ccc(-n2nc(C(C)(C)C)cc2NC(=O)Nc2cccc(-c3c[nH]c4nc(Cl)nc(N5CCOCC5)c34)c2)cc1` [Compound 30], for which the dTm is on record as -0.13 K in experiment [1], 1.60 K in experiment [2], 6.72 K in experiment [3] and 1.21 K in experiment [4].

As for `CC(=O)N1CCN(c2nc(Cl)nc3[nH]cc(-c4cccc(NC(=O)Nc5cc(C(C)(C)C)nn5-c5ccc(C)cc5)c4)c23)CC1` [Compound 31], the dTm in experiment [1] came to 2.85 K; in experiment [2] it was 1.23 K; in experiment [3] it was 8.84 K; in experiment [4] it was 0.55 K.

For `CCSc1nc(NC)c2c(-c3cccc(NC(=O)Nc4cc(C(C)(C)C)nn4-c4ccc(C)cc4)c3)c[nH]c2n1` [Compound 32], the dTm came to 6.20 K in experiment [1], 0.73 K in experiment [2], 3.18 K in experiment [3] and 0.53 K in experiment [4].

On to `COc1cc(C(=O)N2CCOCC2)c(F)cc1Nc1nc(N(C)C)c2c(Cl)c[nH]c2n1` [Compound 36], for which the dTm is reported as 10.98 K in experiment [1], 6.66 K in experiment [2], 0.97 K in experiment [3] and 3.22 K in experiment [4].

In the case of `COc1cc(S(C)(=O)=O)ccc1Nc1nc(N(C)C)c2c(Cl)c[nH]c2n1` [Compound 37], the dTm is given as 9.71 K in experiment [1], 1.09 K in experiment [2], -0.10 K in experiment [3] and -0.19 K in experiment [4].

For `CCNc1nc(Nc2cc(F)c(C(=O)N3CCOCC3)cc2OC)ncc1C(F)(F)F` [GNE-7915], the dTm in experiment [1] is listed as 1.02 K; in experiment [2], 3.14 K; in experiment [3], 2.03 K; in experiment [4], 3.65 K.
